For the assay, the system named is prostate cancer cells. Briefly: Cell killing by ionomycin measured by uptake of trypan blue dye. It counts as cell-based. The following applies: prostate cancer cells treated with ionomycin; after 30 minute; FIG. 1B.

Each structure is given as a SMILES string.

Take `C[C@H](CCC(=O)O)C[C@H](C)C[C@H](C)C(=O)/C=C(\O)[C@H](C)C[C@H](C)C/C=C/[C@@H](C)[C@@H](O)[C@@H](C)[C@@H](O)C[C@@H]1CC[C@@](C)([C@H]2CC[C@@](C)([C@@H](C)O)O2)O1` [ionomycin]: the “cell death as measured by uptake of trypan blue dye” value is “rapidly kills these cells”.

Values taken from patent publication US12072333B2, “Method and apparatus for selective removal of cells from a cell suspension by mechanical lysis” (UNIVERSITY OF IOWA RESEARCH FOUNDATION, priority 2016, dated 2024).
